Reference: PubChem BioAssay (NCI)
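Cells were grown in 96-well plates and exposed to each compound for 48 hours at five concentrations; endpoints were interpolated linearly between bracketing concentrations, or set to the highest concentration if not reached. At the GI50, growth is halved. The concentration for full growth arrest is given as TGI.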

Legend:
Assay in all cases: growth of human tumour cells (NCI), 48 h
786-0 renal = system: 786-0 renal
A498 renal = system: A498 renal
A549 NSCLC = system: A549 NSCLC
ACHN renal = system: ACHN renal
BT-549 breast = system: BT-549 breast
CAKI-1 renal = system: CAKI-1 renal
CCRF-CEM leukemia = system: CCRF-CEM leukemia
COLO 205 colon = system: COLO 205 colon
DU-145 prostate = system: DU-145 prostate
EKVX NSCLC = system: EKVX NSCLC
HCC-2998 colon = system: HCC-2998 colon
HCT-116 colon = system: HCT-116 colon
HCT-15 colon = system: HCT-15 colon
HL-60(TB) leukemia = system: HL-60(TB) leukemia
HOP-62 NSCLC = system: HOP-62 NSCLC
HOP-92 NSCLC = system: HOP-92 NSCLC
HS 578T breast = system: HS 578T breast
HT29 colon = system: HT29 colon
IGROV1 ovarian = system: IGROV1 ovarian
K-562 leukemia = system: K-562 leukemia
KM12 colon = system: KM12 colon
LOX IMVI melanoma = system: LOX IMVI melanoma
M14 melanoma = system: M14 melanoma
MALME-3M melanoma = system: MALME-3M melanoma
MCF7 breast = system: MCF7 breast
MDA-MB-231 breast = system: MDA-MB-231 breast
MDA-MB-435 = system: MDA-MB-435
MDA-MB-468 breast = system: MDA-MB-468 breast
MOLT-4 leukemia = system: MOLT-4 leukemia
NCI-H226 lung = system: NCI-H226 lung

O=C(CSc1nc2ccccc2c(=O)n1-c1ccc(Cl)cc1)Nc1ccc(-c2nc3ccccc3[nH]2)cc1
GI50 (786-0 renal): 1.88 µM
TGI (786-0 renal): 3.69 µM
GI50 (A498 renal): 15.9 µM
TGI (A498 renal): 29.3 µM
GI50 (A549 NSCLC): 1.57 µM
TGI (A549 NSCLC): 3.01 µM
GI50 (ACHN renal): 3.28 µM
TGI (ACHN renal): 10.7 µM
GI50 (BT-549 breast): 5.33 µM
TGI (BT-549 breast): 17.5 µM
GI50 (CAKI-1 renal): 4.51 µM
TGI (CAKI-1 renal): 15.6 µM
GI50 (CCRF-CEM leukemia): 4.39 µM
TGI (CCRF-CEM leukemia): 19.5 µM
GI50 (COLO 205 colon): 2.52 µM
TGI (COLO 205 colon): 8.14 µM
GI50 (DU-145 prostate): 2.12 µM
TGI (DU-145 prostate): 4.76 µM
GI50 (EKVX NSCLC): 3.95 µM
TGI (EKVX NSCLC): 14.8 µM
GI50 (HCC-2998 colon): 3.12 µM
TGI (HCC-2998 colon): 11.6 µM
GI50 (HCT-116 colon): 1.91 µM
TGI (HCT-116 colon): 3.65 µM
GI50 (HCT-15 colon): 1.57 µM
TGI (HCT-15 colon): 3.77 µM
GI50 (HL-60(TB) leukemia): 6.92 µM
TGI (HL-60(TB) leukemia): 21.7 µM
GI50 (HOP-62 NSCLC): 2 µM
TGI (HOP-62 NSCLC): 4.11 µM
GI50 (HOP-92 NSCLC): 1.66 µM
TGI (HOP-92 NSCLC): 5.33 µM
GI50 (HS 578T breast): 2.12 µM
TGI (HS 578T breast): 4.82 µM
GI50 (HT29 colon): 2.1 µM
TGI (HT29 colon): 4.46 µM
GI50 (IGROV1 ovarian): 3.04 µM
TGI (IGROV1 ovarian): 12.5 µM
GI50 (K-562 leukemia): 3.02 µM
TGI (K-562 leukemia): 11.5 µM
GI50 (KM12 colon): 10.9 µM
TGI (KM12 colon): 40 µM
GI50 (LOX IMVI melanoma): 1.55 µM
TGI (LOX IMVI melanoma): 2.89 µM
GI50 (M14 melanoma): 2.48 µM
TGI (M14 melanoma): 7.06 µM
GI50 (MALME-3M melanoma): 1.96 µM
TGI (MALME-3M melanoma): 4.47 µM
GI50 (MCF7 breast): 1.31 µM
TGI (MCF7 breast): 2.85 µM
GI50 (MDA-MB-231 breast): 1.91 µM
TGI (MDA-MB-231 breast): 3.86 µM
GI50 (MDA-MB-435): 2.05 µM
TGI (MDA-MB-435): 4.53 µM
GI50 (MDA-MB-468 breast): 1.9 µM
TGI (MDA-MB-468 breast): 4.7 µM
GI50 (MOLT-4 leukemia): 3.47 µM
TGI (MOLT-4 leukemia): 18.1 µM
GI50 (NCI-H226 lung): 9 µM
